Measured values reported in ChEMBL document CHEMBL3714731, “Heterocyclic compounds for the inhibition of pask” (2014).
pIC50: −log10 of the molar value.

How the values were obtained:
[1] = biological target: Casein kinase II subunit alpha' (Homo sapiens, UniProt P19784); test: Inhibition of GST-tagged full-length purified human CK2a2 using RRRDDDSDDD substrate incubated for 120 mins in presence of [33P]ATP by scintillation counting based biochemical assay
[2] = biological target: T1, PAS domain-containing serine/threonine-protein kinase (Homo sapiens, UniProt Q96RG2); test: Inhibition of N-terminal GST-tagged human recombinant PASK kinase domain (879 to 1323 residues) expressed in insect cells using MBP protein substrate incubated for 120 mins in presence of [33P]ATP by scintillation counting based radiochemical assay
[3] = biological target: Serine/threonine-protein kinase pim-1 (Homo sapiens, UniProt P11309); test: Inhibition of human full-length 6xHis-tagged PIM1 expressed in insect cells using S6K1Rsk2 peptide-2 substrate in presence of [33P]ATP incubated for 120 mins by scintillation counting based biochemical assay
[4] = biological target: T1, PAS domain-containing serine/threonine-protein kinase; test: Inhibition of human recombinant PASK using Ulight-peptide substrate incubated for 2 hrs by TR-FRET assay

T1 sequence (Q96RG2 whole entry, the tested form may be a part): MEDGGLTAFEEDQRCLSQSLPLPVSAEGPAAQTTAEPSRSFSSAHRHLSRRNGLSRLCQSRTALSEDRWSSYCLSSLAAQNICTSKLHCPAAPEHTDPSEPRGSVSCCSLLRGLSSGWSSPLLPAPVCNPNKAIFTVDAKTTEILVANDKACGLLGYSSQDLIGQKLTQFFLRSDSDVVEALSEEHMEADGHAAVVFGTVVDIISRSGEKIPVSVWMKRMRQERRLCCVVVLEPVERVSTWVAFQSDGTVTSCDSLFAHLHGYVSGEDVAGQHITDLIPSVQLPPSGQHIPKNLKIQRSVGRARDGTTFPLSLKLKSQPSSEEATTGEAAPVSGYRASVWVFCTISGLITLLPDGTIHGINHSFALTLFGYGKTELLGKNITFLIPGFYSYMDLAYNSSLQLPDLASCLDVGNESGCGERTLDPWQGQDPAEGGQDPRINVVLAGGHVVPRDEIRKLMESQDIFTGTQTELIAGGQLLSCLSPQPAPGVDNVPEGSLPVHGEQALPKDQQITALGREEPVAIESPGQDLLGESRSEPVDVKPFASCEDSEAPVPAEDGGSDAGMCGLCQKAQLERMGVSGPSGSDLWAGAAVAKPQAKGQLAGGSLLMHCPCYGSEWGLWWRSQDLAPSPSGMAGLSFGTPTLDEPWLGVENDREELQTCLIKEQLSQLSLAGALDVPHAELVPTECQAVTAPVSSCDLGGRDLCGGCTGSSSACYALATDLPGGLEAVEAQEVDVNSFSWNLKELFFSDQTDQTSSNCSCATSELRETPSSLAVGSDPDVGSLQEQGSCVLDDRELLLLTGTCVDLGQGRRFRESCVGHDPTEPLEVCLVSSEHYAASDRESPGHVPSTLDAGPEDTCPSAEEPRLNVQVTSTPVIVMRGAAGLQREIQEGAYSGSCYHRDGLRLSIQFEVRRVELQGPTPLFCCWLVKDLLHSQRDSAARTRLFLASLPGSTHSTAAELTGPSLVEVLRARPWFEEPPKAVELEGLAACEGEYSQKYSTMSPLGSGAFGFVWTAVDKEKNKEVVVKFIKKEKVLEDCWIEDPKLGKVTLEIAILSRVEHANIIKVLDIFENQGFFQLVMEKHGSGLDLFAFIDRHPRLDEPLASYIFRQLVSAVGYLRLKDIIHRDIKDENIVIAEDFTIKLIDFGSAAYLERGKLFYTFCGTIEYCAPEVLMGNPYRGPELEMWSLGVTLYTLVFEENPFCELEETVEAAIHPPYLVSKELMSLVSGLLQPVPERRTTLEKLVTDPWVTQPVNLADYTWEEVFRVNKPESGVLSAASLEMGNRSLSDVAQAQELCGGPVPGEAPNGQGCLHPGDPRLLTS
Chain of Casein kinase II subunit alpha' (P19784 whole entry, the tested form may be a part): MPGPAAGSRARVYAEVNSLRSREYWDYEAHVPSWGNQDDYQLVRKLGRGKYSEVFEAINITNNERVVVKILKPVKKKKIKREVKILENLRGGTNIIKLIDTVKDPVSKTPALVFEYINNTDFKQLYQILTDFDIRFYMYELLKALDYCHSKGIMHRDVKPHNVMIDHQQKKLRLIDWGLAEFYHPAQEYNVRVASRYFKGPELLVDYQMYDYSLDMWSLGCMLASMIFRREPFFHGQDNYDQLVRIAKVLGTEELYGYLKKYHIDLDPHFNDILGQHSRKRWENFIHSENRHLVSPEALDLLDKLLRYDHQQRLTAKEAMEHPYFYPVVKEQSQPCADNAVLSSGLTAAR
Chain of Serine/threonine-protein kinase pim-1 (P11309 whole entry, the tested form may be a part): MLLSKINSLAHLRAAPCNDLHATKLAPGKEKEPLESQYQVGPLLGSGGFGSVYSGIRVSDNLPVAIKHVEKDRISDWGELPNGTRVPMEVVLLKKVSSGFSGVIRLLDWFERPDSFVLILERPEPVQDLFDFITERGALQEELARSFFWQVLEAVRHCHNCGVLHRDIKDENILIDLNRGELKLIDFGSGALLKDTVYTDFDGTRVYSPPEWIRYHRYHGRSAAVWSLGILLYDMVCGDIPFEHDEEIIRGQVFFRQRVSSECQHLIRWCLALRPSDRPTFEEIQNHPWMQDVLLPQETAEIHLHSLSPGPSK

Row | Structure (SMILES) | pIC50 [1] | pIC50 [2] | pIC50 [3] | pIC50 [4]
1 | CCc1cnc(-c2cnn3c(=O)cc(-c4ccc5c(cnn5CC)c4)[nH]c23)o1 | ≥ 5.00 | ≥ 5.00 | ≥ 5.00 | –
2 | Cc1coc(-c2cnn3c(=O)cc(-c4ccc5[nH]ncc5c4)[nH]c23)n1 | – | – | – | ≥ 5.00
3 | COc1cc(-c2cc(=O)n3ncc(CC#N)c3[nH]2)ccc1Cl | ≥ 5.00 | ≥ 5.00 | ≥ 5.00 | –
